The record followed here is publication PMC3744530, “CTA095, a Novel Etk and Src Dual Inhibitor, Induces Apoptosis in Prostate Cancer Cells and Overcomes Resistance to Src Inhibitors” (PLoS ONE, 2013).

Molecules are shown by their SMILES. pIC50: −log10 of the molar value.

One assay has as its system caspase3/7 in PC3 cells. Kind of assay: Caspase-3/7 activity (Apo-ONE Homogeneous assay). The class given is cell-based, human. To be noted: PC3, 0–10 μM, 24 h. As to the method: For caspase 3/7 activities, PC3 cells were seeded at 5,000 cells/well in 96-well plate overnight. Then the cells were treated with 0–10 μM CTA095 for 24 h. Caspase-3/7 activities were measured using the Apo-ONE Homogeneous Caspase-3/7 Assay kit (Promega, Madison, WI) according to the manufacturer's instruction. For caspase 9 activity, PC3 cells were seeded in 10 mm tissue culture plate and grew to 50% confluence. Cells were then treated with 0–10 μM CTA095 for 24 h. Cells were harvested and caspase 9 activity was measured using a Western blot with an anti-caspase 9 antibody.
Figure 7 Induction of apoptosis of PC3 cells following treatment with CTA095. PC3 cells were seeded at 10^6 cells/ml (2 ml) in a 6-well plate overnight and then treated with CTA095 at the indicated concentrations for 24 h. Cell cycle arrest was analyzed using PI staining (A). Apoptosis was analyzed using Annexin-V FITC apoptosis detection kit (B). Caspase 9 activation was measured using western blot (D). For caspase 3/7 activity, PC3 cells were seeded at 5000 cells/well in 96 well plate overnight and treated with CTA095 at 0–10 μM for 24 h. Caspase-3/7 activities were measured using the Apo-ONE Homogeneous Caspase-3/7 Assay kit (Promega, Madison, WI) according to the manufacturer's instruction. Columns, mean; bars, standard deviation, n = 3. […]

In a further assay the target is T1, Etk (Homo sapiens, UniProt P51813).
T1 construct: purchased Millipore Inc (Dundee, UK)
T1 sequence (P51813 1-675): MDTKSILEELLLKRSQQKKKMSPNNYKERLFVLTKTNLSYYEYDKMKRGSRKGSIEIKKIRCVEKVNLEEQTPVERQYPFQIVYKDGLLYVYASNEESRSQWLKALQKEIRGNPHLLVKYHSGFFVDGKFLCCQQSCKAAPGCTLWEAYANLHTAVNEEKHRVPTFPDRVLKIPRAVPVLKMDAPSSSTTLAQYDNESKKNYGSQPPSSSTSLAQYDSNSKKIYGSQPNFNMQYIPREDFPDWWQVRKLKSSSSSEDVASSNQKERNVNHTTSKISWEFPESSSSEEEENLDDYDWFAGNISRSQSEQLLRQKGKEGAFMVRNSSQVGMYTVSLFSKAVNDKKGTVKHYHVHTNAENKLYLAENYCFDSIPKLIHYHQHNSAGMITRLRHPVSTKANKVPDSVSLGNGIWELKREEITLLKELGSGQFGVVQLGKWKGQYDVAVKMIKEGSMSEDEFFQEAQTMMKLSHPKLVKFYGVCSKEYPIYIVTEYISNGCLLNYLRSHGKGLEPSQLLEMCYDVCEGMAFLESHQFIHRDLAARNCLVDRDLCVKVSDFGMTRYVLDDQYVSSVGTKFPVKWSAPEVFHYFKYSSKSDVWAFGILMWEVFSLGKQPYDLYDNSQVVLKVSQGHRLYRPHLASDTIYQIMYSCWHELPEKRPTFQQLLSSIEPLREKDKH
Kind of assay: Kinase inhibition assay (TLC, 33P-ATP). The class given is biochemical. The following applies: for pIC50: Etk. How it is done: (§1) Kinase inhibition was measured using thin-layer-chromatography (TLC). Briefly, purified kinases (20 nM), the corresponding substrate (500 µM, TSFYGRH for Etk, YIYGSFK for the other kinases), and CTA095 (0–10 µM) were incubated in a kinase reaction (100 mM Hepes, pH 7.4, 10 mM MnCl2, 10 mM MgCl2, 1 mM DTT) for 5 min, and the reaction was started by adding 5 μCi ^33P-labeled ATP. The reaction (10 µl) was incubated at room temperature for 1 h and was stopped by adding 10 μL H3PO4. The radioactivity of the peptide substrate was analyzed using TLC as previously described.
(§2) Having isolated a small molecule that inhibits Etk, the next logical step was to determine its specificity for this enzyme. To accomplish this, purified Etk, Btk, Src and Yes were incubated in a kinase reaction buffer with CTA095 (0–1 μM) in the presence of ^33P-labeled ATP and a peptide (YIYGSFK), previously shown to be an excellent substrate for both BTK and Src family kinases. The kinase activity was measured using TLC technique.

In a further assay the target is T2, Yes (Homo sapiens, UniProt P07947).
T2 construct: purchased Millipore Inc (Dundee, UK)
Kind of assay: Kinase inhibition assay (TLC, 33P-ATP). The class given is biochemical. How it is done: as §1, §2

In assay [1] the test system is BCL2 mRNA in PC3-AZD20 cells. The assay is described as follows: Real-time PCR of BCL2 mRNA. The format is cell-based, human. The following applies: PC3-AZD20, 10 μM, RT-PCR. As to the method:
PC3-AZD20 cells were seeded at 10^6 cells/well in 6 well plates overnight. The cells were treated with AZD0530 or CTA095 at 10 μM. Apoptosis was analyzed using Annexin-V FITC apoptosis detection kit. The mRNA levels of Myc and BCL2 were measured using real-time PCR. pEtk, Etk, pSrc, Src, pStat3, Stat3, Myc and BCL2 levels were measured using the corresponding antibodies through a Western blot.
Figure 12 CTA095 induces apoptosis in Src inhibitor resistant prostate cancer cells through Myc and BCL2 inhibition. PC3-AZD20 (PC3 cell resistant to 20 μM AZD0530) cells were seeded at 10^6 cells/well in 6 well plates overnight. The cells were treated with AZD0530 or CTA095 at 10 μM. Apoptosis was analyzed using Annexin-V FITC apoptosis detection kit (A). The mRNA levels of Myc and BCL2 were measured using real-time PCR (B). pEtk, Etk, pSrc, Src, pStat3, Stat3, Myc and BCL2 levels were measured using the corresponding antibodies through Western blot (C). Columns, mean; bars, standard deviation, n = 3.
On the technique in general: Quantitative PCR measures a nucleic acid by following its amplification.

For another assay, the system named is PC3-AZD20 cells. Kind of assay: MTT cell viability in Src inhibitor resistant cells. The class given is cell-based, human. To be noted: 72 h. How it is done: PC3 and PC3-AZD20 (PC3 cell resistant to 20 μM AZD0530, which is from AstraZeneca through MTA with Dr. Chris Evans) cells were seeded at 2000 cells/well in 96 well plates overnight. The cells were treated with AZD0530 or CTA095 at the indicated concentrations. Cell viability was measured using an MTT assay after 72 h.
Figure 11 CTA095 overcomes Src inhibitor resistance in prostate cancer cells. PC3 and PC3-AZD20 (PC3 cell resistant to 20 μM AZD0530) cells were seeded at 2000 cells/well in 96 well plates overnight. The cells were treated with AZD0530 or CTA095 at the indicated concentrations. Cell viability was measured using MTT assay after 72 h. Symbols, mean; bars, standard deviation, n = 3.

T2 sequence (P07947 whole entry): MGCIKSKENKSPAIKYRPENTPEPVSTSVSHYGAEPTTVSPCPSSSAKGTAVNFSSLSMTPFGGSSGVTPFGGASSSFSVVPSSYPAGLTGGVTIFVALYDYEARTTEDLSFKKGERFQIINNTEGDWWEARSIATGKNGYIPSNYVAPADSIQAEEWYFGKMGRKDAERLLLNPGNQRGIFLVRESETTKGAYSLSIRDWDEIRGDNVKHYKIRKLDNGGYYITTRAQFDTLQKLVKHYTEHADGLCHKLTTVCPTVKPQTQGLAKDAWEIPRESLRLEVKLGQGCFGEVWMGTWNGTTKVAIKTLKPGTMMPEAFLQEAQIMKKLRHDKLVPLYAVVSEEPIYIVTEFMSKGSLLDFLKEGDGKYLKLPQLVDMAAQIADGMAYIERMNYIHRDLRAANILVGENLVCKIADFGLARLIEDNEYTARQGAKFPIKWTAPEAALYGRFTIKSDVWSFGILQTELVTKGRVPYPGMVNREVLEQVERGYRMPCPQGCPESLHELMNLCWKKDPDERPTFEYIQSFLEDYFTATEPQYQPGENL

`O=c1[nH]c2cc3nc(-c4ccc5oc6ccccc6c5c4)n(CCCN4CCCCC4)c3cc2nc1-c1ccccc1` [CTA095, 2-(dibenzo[b,d]furan-2-yl)-7-phenyl-1-(3-(piperidin-1-yl)propyl)-1H-imidazo[4,5-g]quinoxalin-6(5H)-one]: the “activation of caspase3/7” value in the assay on caspase3/7 in PC3 cells is “dose dependent activation”. For the same compound, the negative-log IC50 (pIC50) is 7.22 on Etk (TLC assay); around 7.22 against Etk (TLC, peptide YIYGSFK, 33P-ATP); below 5.00 at Yes. The Etk inhibition entry on Etk (compound 1 μM, Etk 20 nM, compared with other CT compounds) was “significant Etk inhibition”. Also, the “BCL2 mRNA level” value in assay [1] is “significantly down regulated”. Besides, the “IC50 in PC3-AZD20 cells” value in the assay with PC3-AZD20 cells was “almost identical to that of the parental PC3 cells”. Further, in the assay with PC3-AZD20 cells, the “cell viability / sensitivity of PC3-AZD20 cells” value is reported as “highly sensitive”.

A word on the pIC50: it is the negative decadic logarithm of the IC50, by convention in mol/L.
